Type in all cases: in vivo
For experiment [1], the system named is Aedes aegypti strain MONHEIM. Kind of experiment: Aedes aegypti test (AEDSAE surface treatment & contact assay). Conditions: 24 hours after contact, read-out: efficacy (mortality). Summed up: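 Compound dissolved in acetone (2 mg/ml) with 2000 ppm rapeseed oil methyl ester, then dried onto a glazed tile. Adult A. aegypti (MONHEIM strain) exposed to the surface for 30 min. Percent mortality scored 24 h after contact.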

The test system of experiment [2] is Rhipicephalus microplus larvae (strain Parkhurst, resistant against synthetic pyrethroids). Briefly: Rhipicephalus (Boophilus) microplus in-vitro contact test, larval cattle tick. The note with it: 5 μg/cm^2 (=500 g/ha), after 48 hours, read-out: efficacy (larvae dead or moribund). Summed up:
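Compound in acetone coated on glass tube inner walls; 900 ppm gives 5 μg/cm^2. Pyrethroid-resistant Parkhurst larvae (20-50 per tube) held at 27 °C, 85% relative humidity. Efficacy scored after 48 h from loss of negative geotaxis; 100% means all larvae dead or moribund.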

Experiment [3] has as its system adult engorged female ticks (Rhipicephalus microplus). Briefly: Rhipicephalus (Boophilus) microplus injection test. Conditions: 168 h, 4 μg/animal, after 7 days, read-out: efficacy (infertile eggs). An outline of the steps: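 Efficacy is scored from egg fertility, with 100% meaning every egg infertile and 0% every egg fertile. Five engorged females per test received 1 μL DMSO solution abdominally. Eggs of unclear fertility were kept until hatching, about 42 days.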

In experiment [4] the test system is Anopheles funestus strain FUMOZ-R. Kind of experiment: Anopheles funestus test (ANPHFU surface treatment & contact assay). The note with it: surface concentration 20 mg/m^2, 30 minutes exposure, 24 hours after contact, read-out: efficacy (mortality). Here is the method: Anopheles funestus Test (ANPHFU Surface Treatment & Contact Assay)
Solvent: Aceton+2000 ppm rapeseed oil methyl ester (RME)
In order to produce a sufficient, active ingredient containing solution it is necessary to solve the test compound in the solvent-mix (acetone at 2 mg/ml/RME 2000 ppm). This solution is pipetted onto a glazed tile and after evaporation of the acetone, adult mosquitoes of the species Anopheles funestus strain FUMOZ-R (Hunt et al., Med. Vet. Entomol. 2005 September; 19(3): 271-275) are placed onto the dried surface. The exposure time is 30 minutes. Mortality in percent (%) is determined 24 hours after contact of the insects to the treated surface. 100% mortality means that all tested insects are dead, whereas 0% means that no insect died.

The subject of experiment [5] is green peach aphid (Myzus persicae). Kind of experiment: Myzus persicae oral test. Conditions: 120 h. Summed up:
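Compound in acetone was diluted with water, and 50 μL was mixed with 150 μL IPL41 insect medium (33% + 15% sugar). A mixed aphid population fed on this through a parafilm seal. Mortality % was scored after 5 days, where 100% means all aphids were killed.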

Experiment [6] deals with adult unfed cat fleas (Ctenocephalides felis). Briefly: Ctenocephalides felis oral test. The note with it: 48 h. An outline of the steps:
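About 20 adult unfed fleas fed through parafilm on cattle blood containing compound (DMSO concentrate diluted in blood); blood held at 37° C., fleas at room temperature. Mortality in % scored after 2 days (100% = all killed).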

For experiment [7], the system named is green peach aphid (Myzus persicae). Kind of experiment: Myzus persicae spray test. Conditions: foliar, 120 h, after 5 days, Chinese cabbage leaf disks. Here is the method:
Myzus persicae—spray test
Solvent: 78.0 parts by weight acetone • 1.5 parts by weight dimethylformamide
(§1) Emulsifier: alkylarylpolyglycol ether
To produce a suitable preparation of active compound, 1 part by weight of active compound is mixed with the stated amount of solvents and is diluted with water, containing an emulsifier concentration of 1000 ppm, to the desired concentration. Further test concentrations are prepared by dilution with emulsifier containing water.
Chinese cabbage (Brassica pekinensis) leaf disks infected with all instars of the green peach aphid (Myzus persicae), are sprayed with a preparation of the active ingredient of the desired concentration.
After 5 days mortality in % is determined. 100% means all aphids have been killed and 0% means none of the aphids have been killed.

The subject of experiment [8] is adult brown dog ticks (Rhipicephalus sanguineus). Kind of experiment: Rhipicephalus sanguineus in-vitro contact test with adult brown dog ticks. Conditions: 5 μg/cm^2 (=500 g/ha), after 48 hours, read-out: efficacy (ticks dead or moribund). Summed up:
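Compound in acetone was coated onto inner walls of glass tubes by rotation (2 h, 30 rpm); 900 ppm gives 5 μg/cm^2. After drying, 5-10 adult ticks were enclosed per tube at room temperature; after 48 h, heat-escape test at 45-50° C scored dead/moribund ticks as % efficacy.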

Experiment [9] relates to larvae of the southern green stink bug (Nezara viridula). Kind of experiment: Nezara viridula spray test. The note with it: 96 h, after 4 days, barley plants. Here is the method:
Nezara viridula—Spray Test
Solvent: 78.0 parts by weight of acetone • • 1.5 parts by weight of dimethylformamide
as §1
To produce a suitable preparation of active compound, 1 part by weight of active compound is mixed with the stated amount of solvent, and the concentrate is diluted with water, containing an emulsifier concentration of 1000 ppm, to the desired concentration. Further test concentrations are prepared by dilution with emulsifier containing water.
Barley plants (Hordeum vulgare) infested with larvae of the southern green stink bug (Nezara viridula) are sprayed with a test solution containing the desired concentration of the active ingredient.
After 4 days mortality in % is determined. 100% means all the stink bugs have been killed; 0% means none of the stink bugs have been killed.

The term mortality denotes the percentage killed.

Molecules are shown by their SMILES.

Take `CC(NC(=O)c1cncc(C(F)(F)F)c1)c1nc(Cl)nn1-c1ncccn1` (stereo not shown) [Example I-007]: in experiment [1] (surface concentration 4 mg/m^2, 30 minutes exposure), the mortality at 4 mg/m2 fell in the range of 80 to 100%. Further, the mortality at 20 mg/m2 fell in the range of 80 to 100% in [1] (surface concentration 20 mg/m^2, 30 minutes exposure) and 80 to 100% in experiment [4]. The pest or weed control at 5 µg/cm2 in experiment [2] stood at 100%. Also, the pest or weed control at 0.004 mg in experiment [3] turned out to be 100%. Also, the mortality at 4 ppm in experiment [5] was 90%. Besides, the mortality at 100 ppm in experiment [6] turned out to be 100%. In addition, the mortality at 100 g/ha in [7] and in experiment [9] was 90% each time. Also, the pest or weed control at 5 µg/cm2, 500 g/ha in [8] came to 100%.

The values above are taken from patent US20220386611A1, “NOVEL HETEROARYL-TRIAZOLE COMPOUNDS AS PESTICIDES” (Bayer Aktiengesellschaft, priority 2019, published 2022).
